Test [1] concerns human lung cancer strain NCI-H441. The format is cell-based. The procedure, abridged: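 Readout: […] after the ATP-based reagent. Compound: serial dilutions in dimethyl sulfoxide.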
Test [2] concerns the target GDP-bound NRAS wild-type protein (Homo sapiens, UniProt P01111). The test can be described thus: Binding to NRAS by surface plasmon resonance (SPR), KD and KD ratio to KRAS. The settings on record: ratio of KD value for GDP-bound NRAS wild-type protein to KD value for KRAS (SPR). A digest of the protocol:
(§1)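 Affinity is measured by surface plasmon resonance at 30°C against captured, GDP-loaded RAS carrying a biotinylated Avi tag. Compounds are titrated by single-cycle kinetics, and KD comes from a 1:1 fit.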
In general terms: In SPR one partner is held on a chip, and binding of the other changes the refractive index at the surface.

For a further test, the target named is HRAS wild-type protein (Homo sapiens, UniProt P01112). As to the kind of experiment: Binding to HRAS by surface plasmon resonance (SPR), KD and KD ratio to KRAS. The settings on record: ratio of KD value for HRAS wild-type protein to KD value for KRAS (SPR). A digest of the protocol:
as §1

Data on 15 compounds can be found in EP4603105A1, “PHARMACEUTICAL COMPOSITION CONTAINING CYCLIC COMPOUND HAVING SELECTIVE KRAS INHIBITORY EFFECT AGAINST HRAS AND NRAS” (CHUGAI SEIYAKU KABUSHIKI KAISHA, priority 2022, dated 2024).

The term IC50 denotes the concentration at which inhibition is half-maximal. High values mean weaker potency, low ones greater potency.

Chain of GDP-bound NRAS wild-type protein (P01111 whole entry): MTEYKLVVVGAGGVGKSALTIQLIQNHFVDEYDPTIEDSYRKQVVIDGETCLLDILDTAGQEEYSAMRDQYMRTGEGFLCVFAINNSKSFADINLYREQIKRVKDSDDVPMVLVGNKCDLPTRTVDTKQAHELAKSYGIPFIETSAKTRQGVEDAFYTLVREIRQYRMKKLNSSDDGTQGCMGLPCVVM
Chain of HRAS wild-type protein (P01112 whole entry): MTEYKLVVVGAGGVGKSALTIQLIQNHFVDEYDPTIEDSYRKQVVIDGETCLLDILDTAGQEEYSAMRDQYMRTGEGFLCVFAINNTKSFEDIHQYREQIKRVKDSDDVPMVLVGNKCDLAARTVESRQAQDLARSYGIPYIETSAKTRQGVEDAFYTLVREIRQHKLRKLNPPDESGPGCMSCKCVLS

Turning to `CCCN(C)C(=O)[C@@H]1CC(=O)N(C)[C@@H](COC)C(=O)N[C@@H]([C@@H](C)CC)C(=O)N(C)CC(=O)N(C)[C@H]2C/C=C\CCN(C2=O)[C@@H](Cc2ccc(C(F)(F)F)cc2)C(=O)N(C)CC(=O)N[C@@H](CCc2cc(F)c(C(F)(F)F)c(F)c2)C(=O)N2CCC[C@H]2C(=O)NC2(CC(C)(C)C2)C(=O)N(C)[C@@H](C2CCCC2)C(=O)N1C` [PP1729], the half-maximal inhibitory concentration (IC50) in test [1] was found to be 20.6 nM. For the same compound, the “NRAS /KRAS” value in test [2] was “AA (a compound having 20 or more is denoted as AA)”. Moreover, the “HRAS /KRAS” value on HRAS wild-type protein is “A (a compound having 10 or more and less than 20 is denoted as A)”.

Consider `CCCN(C)C(=O)[C@@H]1CC(=O)N(C)[C@@H](C)C(=O)N[C@@H]([C@@H](C)CC)C(=O)N(C)CC(=O)N(C)[C@H]2C/C=C\CCN(C2=O)[C@@H](Cc2ccc(C(F)(F)F)cc2)C(=O)N(C)CC(=O)N[C@@H](CCc2cc(F)c(C(F)(F)F)c(F)c2)C(=O)N2C[C@H](OCC)C[C@H]2C(=O)NC2(CC(F)(F)C2)C(=O)N(C)[C@@H](C2CCCC2)C(=O)N1C` [PP1731], for which, in test [1], the IC50 was 7.4 nM. Besides, the “NRAS /KRAS” value in test [2] is “A (a compound having 10 or more and less than 20 is denoted as A)”. At HRAS wild-type protein, the “HRAS /KRAS” value is “A (a compound having 10 or more and less than 20 is denoted as A)”.

Compound `CCCN(C)C(=O)[C@@H]1CC(=O)N(C)[C@@H](CC)C(=O)N[C@@H]([C@@H](C)CC)C(=O)N(C)CC(=O)N(C)[C@H]2C/C=C\CCN(C2=O)[C@@H](Cc2ccc(C(F)(F)F)cc2)C(=O)N(C)CC(=O)N[C@@H](CCc2cc(F)c(C(F)(F)F)c(F)c2)C(=O)N2C[C@H](OCC)C[C@H]2C(=O)NC2(CC(F)(F)C2)C(=O)N(C)[C@@H](C2CCCC2)C(=O)N1C` [PP1732] showed an IC50 in test [1] of 6.4 nM. Further, in test [2], the “NRAS /KRAS” value is “AA (a compound having 20 or more is denoted as AA)”. Further, the “HRAS /KRAS” value at HRAS wild-type protein is “A (a compound having 10 or more and less than 20 is denoted as A)”.

In test [1], `CCCN(C)C(=O)[C@@H]1CC(=O)N(C)[C@@H](CC(F)F)C(=O)N[C@@H]([C@@H](C)CC)C(=O)N(C)CC(=O)N(C)[C@H]2C/C=C\CCN(C2=O)[C@@H](Cc2ccc(C(F)(F)F)cc2)C(=O)N(C)CC(=O)N[C@@H](CCc2cc(F)c(C(F)(F)F)c(F)c2)C(=O)N2C[C@H](OCC)C[C@H]2C(=O)NC2(CC(F)(F)C2)C(=O)N(C)[C@@H](C2CCCC2)C(=O)N1C` [PP1733] gave an IC50 of 3.8 nM. For the same compound, the “NRAS /KRAS” value in test [2] was “A (a compound having 10 or more and less than 20 is denoted as A)”. In addition, the “HRAS /KRAS” value on HRAS wild-type protein is “A (a compound having 10 or more and less than 20 is denoted as A)”.

For the compound `CCCN(C)C(=O)[C@@H]1CC(=O)N(C)[C@@H](CC(F)(F)F)C(=O)N[C@@H]([C@@H](C)CC)C(=O)N(C)CC(=O)N(C)[C@H]2C/C=C\CCN(C2=O)[C@@H](Cc2ccc(C(F)(F)F)cc2)C(=O)N(C)CC(=O)N[C@@H](CCc2cc(F)c(C(F)(F)F)c(F)c2)C(=O)N2C[C@H](OCC)C[C@H]2C(=O)NC2(CC(F)(F)C2)C(=O)N(C)[C@@H](C2CCCC2)C(=O)N1C` [PP1734], 4.4 nM corresponded to half-maximal inhibition in test [1] (IC50). Also, in test [2], the “NRAS /KRAS” value is “A (a compound having 10 or more and less than 20 is denoted as A)”. Besides, the “HRAS /KRAS” value at HRAS wild-type protein is “A (a compound having 10 or more and less than 20 is denoted as A)”.

Compound `CCC[C@H]1C(=O)N[C@@H]([C@@H](C)CC)C(=O)N(C)CC(=O)N(C)[C@H]2C/C=C\CCN(C2=O)[C@@H](Cc2ccc(C(F)(F)F)cc2)C(=O)N(C)CC(=O)N[C@@H](CCc2cc(F)c(C(F)(F)F)c(F)c2)C(=O)N2C[C@H](OCC)C[C@H]2C(=O)NC2(CC(F)(F)C2)C(=O)N(C)[C@@H](C2CCCC2)C(=O)N(C)[C@H](C(=O)N(C)CC)CC(=O)N1C` [PP1735] gave an IC50 in test [1] of 2.2 nM. In addition, the “NRAS /KRAS” value in test [2] was “AA (a compound having 20 or more is denoted as AA)”. On HRAS wild-type protein, the “HRAS /KRAS” value is “A (a compound having 10 or more and less than 20 is denoted as A)”.

As to `CCC[C@H]1C(=O)N[C@@H]([C@@H](C)CC)C(=O)N(C)CC(=O)N(C)[C@H]2C/C=C\CCN(C2=O)[C@@H](Cc2ccc(C(F)(F)F)cc2)C(=O)N(C)CC(=O)N[C@@H](CCc2cc(F)c(C(F)(F)F)c(F)c2)C(=O)N2C[C@H](OCC)C[C@H]2C(=O)NC2(CC(F)(F)C2)C(=O)N(C)[C@@H](C2CCCC2)C(=O)N(C)[C@H](C(=O)N(C)CCC)CC(=O)N1C` [PP1736], the IC50 in test [1] stood at 3.6 nM. Besides, the “NRAS /KRAS” value in test [2] was “A (a compound having 10 or more and less than 20 is denoted as A)”. In addition, on HRAS wild-type protein, the “HRAS /KRAS” value was “A (a compound having 10 or more and less than 20 is denoted as A)”.

In test [1], `C#CC[C@H]1C(=O)N[C@@H]([C@@H](C)CC)C(=O)N(C)CC(=O)N(C)[C@H]2C/C=C\CCN(C2=O)[C@@H](Cc2ccc(C(F)(F)F)cc2)C(=O)N(C)CC(=O)N[C@@H](CCc2cc(F)c(C(F)(F)F)c(F)c2)C(=O)N2C[C@H](OCC)C[C@H]2C(=O)NC2(CC(F)(F)C2)C(=O)N(C)[C@@H](C2CCCC2)C(=O)N(C)[C@H](C(=O)N(C)CCC)CC(=O)N1C` [PP1737] showed an IC50 of 2.7 nM. For the same compound, the “NRAS /KRAS” value in test [2] was “A (a compound having 10 or more and less than 20 is denoted as A)”. Besides, the “HRAS /KRAS” value on HRAS wild-type protein is “A (a compound having 10 or more and less than 20 is denoted as A)”.

In test [1], `CCO[C@@H]1C[C@H]2C(=O)NC3(CC(F)(F)C3)C(=O)N(C)[C@@H](C3CCCC3)C(=O)N(C)[C@H](C(=O)N(C)CC)CC(=O)N(C)[C@@H](CC3CC3)C(=O)N[C@@H]([C@@H](C)CC)C(=O)N(C)CC(=O)N(C)[C@H]3C/C=C\CCN(C3=O)[C@@H](Cc3ccc(C(F)(F)F)cc3)C(=O)N(C)CC(=O)N[C@@H](CCc3cc(F)c(C(F)(F)F)c(F)c3)C(=O)N2C1` [PP1738] gave a 50% inhibitory concentration (IC50) of 5.1 nM. Further, the “NRAS /KRAS” value in test [2] is “AA (a compound having 20 or more is denoted as AA)”. Besides, the “HRAS /KRAS” value at HRAS wild-type protein was “A (a compound having 10 or more and less than 20 is denoted as A)”.

In turn, `CCCN(C)C(=O)[C@@H]1CC(=O)N(C)[C@@H](CC2CC2)C(=O)N[C@@H]([C@@H](C)CC)C(=O)N(C)CC(=O)N(C)[C@H]2C/C=C\CCN(C2=O)[C@@H](Cc2ccc(C(F)(F)F)cc2)C(=O)N(C)CC(=O)N[C@@H](CCc2cc(F)c(C(F)(F)F)c(F)c2)C(=O)N2C[C@H](OCC)C[C@H]2C(=O)NC2(CC(F)(F)C2)C(=O)N(C)[C@@H](C2CCCC2)C(=O)N1C` [PP1739] yielded a half-inhibitory concentration (IC50) in test [1] of 5.5 nM. Also, the “NRAS /KRAS” value in test [2] is “AA (a compound having 20 or more is denoted as AA)”. Moreover, at HRAS wild-type protein, the “HRAS /KRAS” value was “AA (a compound having 20 or more is denoted as AA)”.

Regarding `CCO[C@@H]1C[C@H]2C(=O)NC3(CC(F)(F)C3)C(=O)N(C)[C@@H](C3CCCC3)C(=O)N(C)[C@H](C(=O)N(C)C)CC(=O)N(C)[C@@H](CC(C)C)C(=O)N[C@@H]([C@@H](C)CC)C(=O)N(C)CC(=O)N(C)[C@H]3C/C=C\CCN(C3=O)[C@@H](Cc3ccc(C(F)(F)F)cc3)C(=O)N(C)CC(=O)N[C@@H](CCc3cc(F)c(C(F)(F)F)c(F)c3)C(=O)N2C1` [PP1741], the 50% inhibitory concentration (IC50) in test [1] was determined as 2.3 nM. Further, in test [2], the “NRAS /KRAS” value was “A (a compound having 10 or more and less than 20 is denoted as A)”. Also, at HRAS wild-type protein, the “HRAS /KRAS” value is “B (a compound having 3 or more and less than 10 is denoted as B)”.

In test [1], `CCO[C@@H]1C[C@H]2C(=O)NC3(CC(F)(F)C3)C(=O)N(C)[C@@H](C3CCCC3)C(=O)N(C)[C@H](C(=O)N(C)C)CC(=O)N(C)[C@@H](CC3CCC3)C(=O)N[C@@H]([C@@H](C)CC)C(=O)N(C)CC(=O)N(C)[C@H]3C/C=C\CCN(C3=O)[C@@H](Cc3ccc(C(F)(F)F)cc3)C(=O)N(C)CC(=O)N[C@@H](CCc3cc(F)c(C(F)(F)F)c(F)c3)C(=O)N2C1` [PP1742] yielded an IC50 of 1.6 nM. In addition, the “NRAS /KRAS” value in test [2] was “A (a compound having 10 or more and less than 20 is denoted as A)”. Also, the “HRAS /KRAS” value at HRAS wild-type protein is “A (a compound having 10 or more and less than 20 is denoted as A)”.

On to `CCCN(C)C(=O)[C@@H]1CC(=O)N(C)[C@@H](COC)C(=O)N[C@@H]([C@@H](C)CC)C(=O)N(C)CC(=O)N(C)[C@H]2C/C=C\CCN(C2=O)[C@@H](Cc2ccc(C(F)(F)F)cc2)C(=O)N(C)CC(=O)N[C@@H](CCc2cc(F)c(C(F)(F)F)c(F)c2)C(=O)N2C[C@H](OCC)C[C@H]2C(=O)NC2(CC(F)(F)C2)C(=O)N(C)[C@@H](C2CCCC2)C(=O)N1C` [PP1743], for which the IC50 in test [1] was 5.1 nM. Moreover, the “NRAS /KRAS” value in test [2] is recorded as “AA (a compound having 20 or more is denoted as AA)”. Also, the “HRAS /KRAS” value on HRAS wild-type protein is “A (a compound having 10 or more and less than 20 is denoted as A)”.

`CCCOC[C@H]1C(=O)N[C@@H]([C@@H](C)CC)C(=O)N(C)CC(=O)N(C)[C@H]2C/C=C\CCN(C2=O)[C@@H](Cc2ccc(C(F)(F)F)cc2)C(=O)N(C)CC(=O)N[C@@H](CCc2cc(F)c(C(F)(F)F)c(F)c2)C(=O)N2C[C@H](OCC)C[C@H]2C(=O)NC2(CC(F)(F)C2)C(=O)N(C)[C@@H](C2CCCC2)C(=O)N(C)[C@H](C(=O)N(C)CCC)CC(=O)N1C` [PP1744] registered an IC50 in test [1] of 5.3 nM. For the same compound, in test [2], the “NRAS /KRAS” value was “A (a compound having 10 or more and less than 20 is denoted as A)”. Besides, at HRAS wild-type protein, the “HRAS /KRAS” value was “A (a compound having 10 or more and less than 20 is denoted as A)”.

Consider `CCO[C@@H]1C[C@H]2C(=O)NC3(CC(C)(C)C3)C(=O)N(C)[C@@H](C3CCCC3)C(=O)N(C)[C@H](C(=O)N(C)C)CC(=O)N(C)[C@@H](CC)C(=O)N[C@@H]([C@@H](C)CC)C(=O)N(C)CC(=O)N(C)[C@H]3C/C=C\CCN(C3=O)[C@@H](Cc3ccc(C(F)(F)F)cc3)C(=O)N(C)CC(=O)N[C@@H](CCc3ccc(C(F)(F)F)c(Cl)c3)C(=O)N2C1` [PP1746], for which the 50% inhibitory concentration (IC50) in test [1] amounted to 1.9 nM. In addition, the “NRAS /KRAS” value in test [2] was “A (a compound having 10 or more and less than 20 is denoted as A)”. For the same compound, the “HRAS /KRAS” value on HRAS wild-type protein was “A (a compound having 10 or more and less than 20 is denoted as A)”.
